Test results as given in US10793575B2, “Oxoisoquinoline derivatives” (CARNA BIOSCIENCES, INC., priority 2016, dated 2020).

Tests used:
BTK = BTK (Homo sapiens (Human), UniProt Q06187); assay: Intracellular BTK Auto-Phosphorylation Activity Inhibition Test in Ramos cells; assay type: cell-based; conditions: test compound 0.03 μM, anti-IgM stimulation, pY223, read-out: Inhibitory Activity on BTK-phosphorization
Procedure: Ramos cells (2G6.4C10, ATCC No. CRL-1923) were cultured in a T75 flask containing RPMI-1640 medium (GIBCO, # A10491-01) supplemented with 10% FBS (AusGene) and 1% penicillin-streptomycin (Nacalai Tesque, Inc.) (hereinafter referred to as growth medium) in a 5% CO2 incubator.
The cultured Ramos cells were diluted to a cell density of 7.5×10^6 cells/mL with a serum-free RPMI-1640 (hereinafter referred to as medium) and kept at 37° C. for 45 minutes. The cell suspension was dispensed in 1 mL aliquots into 2.0 mL tubes. A 0.03 mM solution of the test substance in DMSO was diluted with the medium to make a 0.09 μM test compound solution, 500 μL of which was then added to the tubes and the incubation was conducted at 37° C. for 1 hour in the presence of the test compound at a final concentration of 0.03 μM. Thereafter, the anti-IgM antibody (Invitrogen, H15100) which had been diluted with the medium was added at a final concentration of 10 μg/mL, and the incubation was conducted at 37° C. for 10 minutes.
To the pellets obtained by recovering the cells via centrifugation, 100 μL of a lysis buffer [RIPA Buffer(×1)(Cell Signaling Technology, Inc.) supplemented with 1% Phosphatase inhibitor Cacktail 3 (Sigma Corporation, No. P0044), 1% Phosphatase inhibitor Cacktail (Nacalai Tesque, Inc., No. 07575) and 1 mM phenylmethylsulfonyl fluoride (PMSF)] was added and stirred gently and then allowed to stand for 10 minutes. The supernatant was recovered by centrifugation (15,000 rpm, 15 minutes) and the protein level was quantified. The portion was mixed with the SDS-sample buffer, allowed to react for 5 minutes at 95° C. to denature the protein, thereby obtaining a sample solution. Each 5 μL of the sample solutions was applied to each well containing a 5 to 20% gradient acrylamide gel (Nacalai Tesque, Inc., No. 13064-04) and electrophoresis was conducted. Thereafter, iBlot gel transfer system (Life Technologies Corporation) was used to transfer the proteins in the gel onto a PVDF membrane.
The PVDF membrane after transfer was blocked with 2% ECL prime blocking Reagent (GE Healthcare) and thereafter the reaction was conducted overnight at 4° C. using anti-BTK mouse antibody (BD transduction laboratory, No. 611116) or anti-phosphorylated BTK rabbit antibody (pY223, EPITOMICS, No. 2207-1) as a primary antibody. The unreacted primary antibody was washed with a TBST buffer (10 mM Tris-HCl (pH 7.5), 150 mM NaCl, 0.1% Tween 20) and then the reaction was conducted for 1 hour at room temperature in a TBST buffer supplemented with 2% ECL prime blocking Reagent using HRP-labeled anti-mouse IgG horse antibody (Cell Signaling Technology, No. 7076) or anti-rabbit IgG goat antibody (Cell Signaling Technology, No. 7074) as a secondary antibody. After washing the unreacted secondary antibody with the TBST buffer, Chemi-Lumi One Super (Nacalai Tesque, Inc.) was used to conduct a reaction in accordance with the attached protocol, and then the respective bands as chemiluminescences were detected with a CCD camera (GE Healthcare ImageQuant LAS 500). […] Each phosphorylated BTK band was corrected based on the total BTK.
The intracellular BTK autophosphorylation inhibiting activity was indicated with the mark “***” when 90% or more, with the mark “**” when 70% or more and less than 90%, and with the mark “*” when 50% or more and less than 70%.

dephosphorylated BTK = dephosphorylated BTK (Homo sapiens (Human), UniProt Q06187); assay: BTK Activity Inhibition Test (mobility shift assay); assay type: biochemical; conditions: 200 μM ATP, read-out: Inhibitory Activity on BTK
Procedure: Dephosphorylated BTK was obtained by adding λ protein phosphatase (manufactured by New England BioLabs Inc., Code No. P0753S) and MnCl2 at 10 U/μg and 2 mM, respectively, to biotinylated BTK protein BTN-BTK (Manufactured by Carna Biosciences, Inc.) enzyme solution, reacting the mixture at 4° C. overnight, and removing of λ protein phosphatase by anti […]-tag antibody agarose gel chromatography, followed by buffer exchange using a 10DG Desalting Column.
The kinase activity was measured using QuickScout Screening Assist (trade mark) MSA (commercially available kit manufactured by Carna Biosciences, Inc.) by mobility shift assay (MSA) method. The substrate of the kinase reaction was an FITC-labeled SRCtide peptide included in the kit. An assay buffer [20 mM HEPES, 0.01% Triton X-100 (Trade mark), 2 mM dithiothreitol, pH 7.5] was used and adjusted at 4 μM substrate, 20 mM MgCl2 and 200 μm ATP to obtain a substrate mixture solution. The enzyme solution was also prepared by diluting the dephosphorylated BTK to 0.46 nM using the assay buffer. The 10 mM solution of the test compound in DMSO was further diluted with DMSO to 10 levels of the concentration (0.00003 mM, 0.0001 mM, 0.0003 mM, 0.001 mM, 0.003 mM, 0.01 mM, 0.03 mM, 0.1 mM, 0.3 mM, 1 mM), each of which was subjected to a 25-fold dilution with the assay buffer to obtain the drug solutions (4% DMSO solutions). 5 μL of the drug solution or a control solution (4% DMSO-assay buffer), 5 μL of the substrate mixture solution, and 10 μL of the enzyme solution were mixed in the wells of a polypropylene 384-well plate and allowed to react at room temperature for 2 hours, and then quenched by adding 60 μL of the termination buffer included in the kit. Subsequently, the quantities of the substrates (S) and the phosphorylated substrate (P) in the reaction solution were measured using LabChip EZ Reader II system (manufactured by Caliper Life Sciences) according to the protocol of the assay kit.
(§1) The heights of the peaks of the isolated substrate and the phosphorylated substrate were represented as S and P, respectively, and a blank which contained the assay buffer instead of the enzyme solution was also measured.
(§2) The inhibition rate (%) of the test compound was calculated according to the following equation; Inhibition rate (%)=(1−(C−A)/(B−A))×100 • wherein, A, B and C represent P/(P+S) of the blank well, P/(P+S) of the control well and P/(P+S) of the compound-containing well, respectively.
(§3) The IC50 value was calculated via a regression analysis of the inhibition rate (%) and the test compound concentration (logarithmic value).

wild type BTK [BTK(WT)] = wild type BTK [BTK(WT)] (Homo sapiens (Human), UniProt Q06187); assay: C481S Mutant BTK Inhibitory Activity Test, wild type BTK (mobility shift assay); assay type: biochemical; conditions: 120 μM ATP
Procedure: (§4) The kinase activity was measured using QuickScout Screening Assist (trademark) MSA (commercially available kit manufactured by Carna Biosciences, Inc.) by mobility shift assay (MSA) method. The substrate of the kinase reaction was an FITC-labeled SRCtide peptide included in the kit. […] The 10 mM solution of the test compound in DMSO was further diluted with DMSO to 10 levels of the concentration (0.00003 mM, 0.0001 mM, 0.0003 mM, 0.001 mM, 0.003 mM, 0.01 mM, 0.03 mM, 0.1 mM, 0.3 mM, 1 mM), each of which was subjected to a 25-fold dilution with the assay buffer to obtain the drug solutions (4% DMSO solutions).
(§5) 5 μL of the drug solution or a control solution (4% DMSO-assay buffer), 5 μL of the substrate mixture solution, and 10 μL of the enzyme solution were mixed in the wells of a polypropylene 384-well plate and allowed to react at room temperature for 1 hour, and then quenched by adding 60 μL of the termination buffer included in the kit. Subsequently, the quantities of the substrates (S) and the phosphorylated substrate (P) in the reaction solution were measured using LabChip EZ Reader II system (manufactured by Caliper Life Sciences) according to the protocol of the assay kit.
as §1, §2, §3

[1] = target: C481S mutant BTK [BTK(C481S)] (Homo sapiens (Human), UniProt Q06187, C481S); assay: C481S Mutant BTK Inhibitory Activity Test (mobility shift assay); assay type: biochemical; conditions: for IC50: C481S mutant BTK, 100 μM ATP; for C481S mutation-resistance: IC50[BTK(C481S)]/IC50[BTK(WT)]
Procedure: as §4, §5, §1, §2, §3

OCI-Ly10 cells = assay: Proliferation-Inhibitory Test Against Diffuse Large-Cell B-Cell Lymphoma OCI-Ly10 Strain; assay type: cell-based; conditions: Homo sapiens, 96 hours, alamarBlue
Method in brief: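 In IMDM with 20% FBS, OCI-Ly10 cells (20000 cells/well) were exposed to compound at 0.9 nM to 30000 nM (0.3% DMSO final) for 96 hours. Viability was then read with alamarBlue reagent.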

dephosphorylated BTK, sequence (Q06187 whole entry): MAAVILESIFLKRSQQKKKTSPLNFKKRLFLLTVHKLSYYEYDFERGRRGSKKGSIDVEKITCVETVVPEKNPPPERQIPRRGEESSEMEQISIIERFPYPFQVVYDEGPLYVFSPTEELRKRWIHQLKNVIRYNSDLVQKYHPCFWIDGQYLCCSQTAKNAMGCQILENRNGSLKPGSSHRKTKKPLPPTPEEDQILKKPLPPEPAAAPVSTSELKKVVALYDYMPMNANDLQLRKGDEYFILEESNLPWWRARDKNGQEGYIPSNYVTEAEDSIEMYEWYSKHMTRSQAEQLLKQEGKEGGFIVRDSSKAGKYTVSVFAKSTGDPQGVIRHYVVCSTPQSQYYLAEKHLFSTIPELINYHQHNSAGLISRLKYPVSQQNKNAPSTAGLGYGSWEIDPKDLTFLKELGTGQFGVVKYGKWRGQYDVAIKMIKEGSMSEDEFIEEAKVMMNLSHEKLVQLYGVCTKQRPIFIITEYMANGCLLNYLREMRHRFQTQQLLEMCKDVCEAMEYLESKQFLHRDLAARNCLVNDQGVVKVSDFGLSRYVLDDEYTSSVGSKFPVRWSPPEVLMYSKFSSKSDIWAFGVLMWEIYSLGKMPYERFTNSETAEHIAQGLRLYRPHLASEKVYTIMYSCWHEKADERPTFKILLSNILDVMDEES
wild type BTK [BTK(WT)], sequence (Q06187 whole entry): as above
BTK, sequence (Q06187 whole entry): as above
C481S mutant BTK [BTK(C481S)], sequence (Q06187 whole entry C481S): as the sequence (Q06187 whole entry) above, with C481S counted along it

| SMILES | inhibition at 0.03 µM (BTK) | IC50 (dephosphorylated BTK) | IC50 (wild type BTK [BTK(WT)]) | IC50 [1] | C481S mutation-resistance [1] | IC50 (OCI-Ly10 cells) |
| --- | --- | --- | --- | --- | --- | --- |
| Nc1nc(-c2cccc(-n3ccc4cc(C5CC5)cc(F)c4c3=O)c2CO)c2cc(-c3ccccc3)[nH]c2n1 [Example 1, 2-[3-(2-amino-6-phenyl-7H-pyrrolo[2,3-d]pyrimidin-4-yl)-2-(hydroxymethyl)phenyl]-6-cyclopropyl-8-fluoroisoquinolin-1(2H)-one] | ≥ 90% | < 10 nM |  |  |  |  |
| Nc1nc(-c2cccc(-n3ccc4cc(C5CC5)cc(F)c4c3=O)c2CO)c2c(-c3ccccc3)n[nH]c2n1 [Example 3, 2-[3-(6-amino-3-phenyl-1H-pyrazolo[3,4-d]pyrimidin-4-yl)-2-(hydroxymethyl)phenyl]-6-cyclopropyl-8-fluoroisoquinolin-1(2H)-one] | ≥ 90% | < 10 nM |  |  |  |  |
| Nc1nc(-c2cccc(-n3ccc4cc(C5CC5)cc(F)c4c3=O)c2CO)c2cn[nH]c2n1 [Example 5, 2-[3-(6-amino-1H-pyrazolo[3,4-d]pyrimidin-4-yl)-2-(hydroxymethyl)phenyl]-6-cyclopropyl-8-fluoroisoquinolin-1(2H)-one] | ≥ 90% | < 10 nM |  |  |  |  |
| COc1ccccc1-c1cc2c(-c3cccc(-n4ccc5cc(C6CC6)cc(F)c5c4=O)c3CO)nc(N)nc2[nH]1 [Example 14, 2-{3-[2-amino-6-(2-methoxyphenyl)-7H-pyrrolo[2,3-d]pyrimidin-4-yl]-2-(hydroxymethyl)phenyl}-6-cyclopropyl-8-fluoroisoquinolin-1(2H)-one] | 70 to 90% | < 10 nM |  |  |  |  |
| CS(=O)(=O)c1ccc(-c2cc3c(-c4cccc(-n5ccc6cc(C7CC7)cc(F)c6c5=O)c4CO)nc(N)nc3[nH]2)cc1 [Example 41, 2-(3-{2-amino-6-[4-(methylsulfonyl)phenyl]-7H-pyrrolo[2,3-d]pyrimidin-4-yl}-2-(hydroxymethyl)phenyl)-6-cyclopropyl-8-fluoroisoquinolin-1(2H)-one] |  | < 10 nM | 0.73 nM | 1.03 nM | 1.4 | 17 nM |
| Nc1nc(-c2cccc(-n3ccc4cc(C5CC5)cc(F)c4c3=O)c2CO)c2cc(-c3cccc(F)n3)[nH]c2n1 [Example 42, 2-{3-[2-amino-6-(6-fluoropyridin-2-yl)-7H-pyrrolo[2,3-d]pyrimidin-4-yl]-2-(hydroxymethyl)phenyl}-6-cyclopropyl-8-fluoroisoquinolin-1(2H)-one] |  | < 10 nM | 0.87 nM | 1.06 nM | 1.2 | 97 nM |
| Nc1nc(-c2cccc(-n3ccc4cc(C5CC5)cc(F)c4c3=O)c2CO)c2cc(-c3ccnc(F)c3)[nH]c2n1 [Example 43, 2-{3-[2-amino-6-(2-fluoropyridin-4-yl)-7H-pyrrolo[2,3-d]pyrimidin-4-yl]-2-(hydroxymethyl)phenyl}-6-cyclopropyl-8-fluoroisoquinolin-1(2H)-one] |  | < 10 nM | 1.11 nM | 1.72 nM | 1.5 | 194 nM |
| Nc1nc(-c2cccc(-n3ccc4cc(C5CC5)cc(F)c4c3=O)c2CO)c2cc(C3=CCN(C(=O)N4CCCC4)CC3)[nH]c2n1 [Example 88, 2-(3-{2-amino-6-[1-(pyrrolidine-1-carbonyl)-1,2,3,6-tetrahydropyridin-4-yl]-7H-pyrrolo[2,3-d]pyrimidin-4-yl}-2-(hydroxymethyl)phenyl)-6-cyclopropyl-8-fluoroisoquinolin-1(2H)-one] |  |  | 0.94 nM | 1.49 nM | 1.6 | 7 nM |
| CS(=O)(=O)N1CC=C(c2cc3c(-c4cccc(-n5ccc6cc(C7CC7)cc(F)c6c5=O)c4CO)nc(N)nc3[nH]2)CC1 [Example 89, 2-(3-{2-amino-6-[1-(methylsulfonyl)-1,2,3,6-tetrahydropyridin-4-yl]-7H-pyrrolo[2,3-d]pyrimidin-4-yl}-2-(hydroxymethyl)phenyl)-6-cyclopropyl-8-fluoroisoquinolin-1(2H)-one] |  |  | 0.34 nM | 0.7 nM | 2.1 | 10 nM |
| CCN1CC=C(c2cc3c(-c4cccc(-n5ccc6cc(C7CC7)cc(F)c6c5=O)c4CO)nc(N)nc3[nH]2)CC1 [Example 91, 2-{3-[2-amino-6-(1-ethyl-1,2,3,6-tetrahydropyridin-4-yl)-7H-pyrrolo[2,3-d]pyrimidin-4-yl]-2-(hydroxymethyl)phenyl}-6-cyclopropyl-8-fluoroisoquinolin-1(2H)-one] |  |  | 0.47 nM | 1.1 nM | 2.1 | 38 nM |
